Assay results published in US11052090B2, “Use of TREM-1 inhibitors for treatment, elimination and eradication of HIV-1 infection” (priority 2015, dated 2021).

How the values were obtained:
HIV-1 (BaL) = assay: microbe, parasite or virus in culture; format: cell-based
Experimental: Macrophages can be isolated as follows: Monocytes can be isolated from buffy coats of HIV-1 negative, HBV/HCV-negative donors with density gradient centrifugation coupled with enrichment for CD14+ monocytes with Rosette Sep antibody cocktail (Stem Cell Technologies, Vancouver, British Columbia). Cells can be seeded at a concentration of 1.0×10^6 cells/well for 1 hr at 37° C. and 5% CO2 to confer plastic adherence prior to repeated washes with 1×PBS. Macrophages can be maintained in medium containing 100 U/ml macrophage colony-stimulating factor (m-CSF, R&D Systems, Minneapolis, Minn.), supplemented with 20% fetal calf serum (Atlanta Biologicals, Lawrenceville, Ga.) and 1% penicillin/streptomyocin (Invitrogen, Carlsbad, Calif.) for 7 days (37° C., 5% CO2) prior to testing.
Macrophage infections: Macrophages can be cultured as described above for 7 days. For acute infection, macrophages can be serum starved for 8 hrs prior to infection and cultured for 2 hr in medium containing various concentrations of AZT (positive control) or Tofacitinib or Jakafi for 2 hr prior to removal of drug-containing medium and 4 hr infection with HIV-1BaL at 0.1 MOI in the absence of drug. Four hr after infection, virus can be removed and drug-containing medium returned to the cultures. Supernatants can be collected on day 7 post-infection and HIV-1 p24 can be quantified via ELISA (Zeptometrix Corporation, Buffalo, N.Y.). EC50 analysis can be performed using CalcuSyn software (BioSoft Corporation, Cambridge, UK).
Extracellular virus was quantified 7 days after infection (HIV-1 p24 ELISA).

[1] = test system: primary human macrophages; assay: Toxicity in primary human macrophages (zombie violet live/dead dye, FACS); format: cell-based; conditions: Macrophage
HIV-1 = test system: HIV-1
Experimental: Human PBM cells can be isolated as follows: Lymphocytes can be isolated from buffy coats derived from healthy donors. Activated lymphocytes can be maintained for 72 hr in medium supplemented with 6 μg/ml phytohemagglutinin (PHA) (Cape Cod associates, East Falmouth, Mass.). Media can be comprised of RPMI media supplemented with 20% fetal calf serum, 1% penicillin/streptomyocin and 2% L-glutamine (Sigma Aldrich, San Jose, Calif.).
Human PBM cell infections: Testing can be performed in duplicate with at least 3 independent assays. Cells can be incubated in RPMI medium (HyClone, Logan, Utah) containing HR-IL2 (26.5 units/ml) and 20% fetal calf serum. Infections can be performed by adding HIV-ILA' followed by a further incubation at 37° C., 5% CO2, 1 hr prior to addition of drugs. Assays can be performed in 24 well plates (BD Biosciences, Franklin Lakes, N.J.). One ml of supernatant can be collected after 5 days in culture and then centrifuged at 12,000 rpm for 2 hr at 4° C. in a Jouan Br43i (Thermo Electron Corp., Marietta, Ohio). The product of the RT assay can be quantified using a Packard harvester and direct beta counter and the data can be analyzed as previously described (Schinazi et al., 1990).

MØ cells = format: cell-based; conditions: human
Experimental: (§1) The toxicity of the compounds was assessed in Vero, human PBM, CEM (human lymphoblastoid), as described previously (see Schinazi R. F., Sommadossi J.-P., Saalmann V., Cannon D. L., Xie M.-Y., Hart G. C., Smith G. A. & Hahn E. F. Antimicrob. Agents Chemother. 1990, 34, 1061-67), and also in MØ cells. Cycloheximide was included as positive cytotoxic control, and untreated cells exposed to cell culture medium were included as negative controls.
The cytotoxicity IC50 was obtained from the concentration-response curve using the median effective method described previously (see Chou T.-C. & Talalay P. Adv. Enzyme Regul. 1984, 22, 27-55; Belen'kii M. S. & Schinazi R. F. Antiviral Res. 1994, 25, 1-11).

[2] = test system: primary human lymphocytes; assay: Proliferation and viability of activated PBM cells / PHA or PHA+IL-2 stimulated primary human lymphocytes; format: cell-based; conditions: for Viability, proliferation or total cell number not affected up to: human
Experimental: as §1, with “controls. […]” for “controls.”
Cell proliferation was evaluated in activated PBM cells incubated for 5 days with various concentrations of Tofacitinib and Jakafi, with cycloheximide as a positive control, and a “cells plus media” control used as well. The data is shown in FIG. 2, in terms of total cell number (10^6 cells) versus μM drug in medium.
Cell viability was evaluated in activated PBM cells incubated for 5 days with various concentrations of Tofacitinib and Jakafi, with cycloheximide as a positive control, and a “cells plus media” control used as well.
For all experiments, cells were incubated with media alone or drug-containing medium for 5 days prior to assessment of cell count and viability. […] Data are mean and standard deviations for at least three independent experiments conducted with at least four pooled donors, and duplicates within each experiment. Dotted bar represents mean cell count or viability for cells maintained in drug-free medium.

HepG2 cells = conditions: 10 μM; cited from earlier work
mice = conditions: mouse, in vivo; cited from earlier work

For Cc1cn([C@H]2C[C@H](N=[N+]=[N-])[C@@H](CO)O2)c(=O)[nH]c1=O [AZT, 3′-azido-3′-deoxythymidine], the “Inhibition of HIV-1 replication in primary human macrophages” value (HIV-1 (BaL); HIV-1 BaL, p24 ELISA day 7) was “nanomolar inhibition”, the EC50 (HIV-1 (BaL); Human immunodeficiency virus 1, Macrophage, 168 h, HIV-1 BaL, extracellular virus 7 days after infection, read-out: Antiviral potency in primary human macrophages (EC50)) was 10 ± 20 nM and the EC90 (HIV-1 (BaL); Human immunodeficiency virus 1, Macrophage, 168 h, HIV-1 BaL, extracellular virus 7 days after infection, read-out: Antiviral potency in primary human macrophages (EC90)) was 700 ± 200 nM. For the same compound, the IC50 [1] was over 100000 nM.
In the case of N#CC[C@H](C1CCCC1)n1cc(-c2ncnc3[nH]ccc23)cn1 [Jakafi], the “Inhibition of HIV-1 replication in PBM cells” value (HIV-1) is reported as “sub-micromolar”, the “Inhibition of HIV-1 replication in MØ cells” value (HIV-1 (BaL)) is reported as “sub-micromolar” and the “Viability, proliferation or total cell number not affected up to” value (MØ cells) is reported as “around 10 μM”. The “Proliferation versus cells exposed to media alone” value [2] was “not significantly different”, the Total cell proliferation [2] was “do not affect” and the Total cell viability [2] was “do not affect”. For the same compound, the “Viability versus cells exposed to media alone” value [2] was “not significantly different” and the “Viability, proliferation or total cell number not affected up to” value ([2]; 5 days) was “around 10 μM”.
In the case of C[C@@H]1CCN(C(=O)CC#N)C[C@@H]1N(C)c1ncnc2[nH]ccc12 [Tofacitinib, 3-{(3R,4R)-4 methyl-3-[methyl-(7H-pyrrolo[2,3-d]pyrimidin-4-yl)-amino]-piperidin-1-yl}-3-oxo-propionitrile], the “Inhibition of HIV-1 replication in PBM cells” value (HIV-1) is reported as “sub-micromolar”, the “Inhibition of HIV-1 replication in MØ cells” value (HIV-1 (BaL)) is reported as “sub-micromolar” and the “Viability, proliferation or total cell number not affected up to” value (MØ cells) is reported as “around 10 μM”. The “Proliferation versus cells exposed to media alone” value [2] was “not significantly different”, the Total cell proliferation [2] was “do not affect” and the Total cell viability [2] was “do not affect”. For the same compound, the “Viability versus cells exposed to media alone” value [2] was “not significantly different” and the “Viability, proliferation or total cell number not affected up to” value ([2]; 5 days) was “around 10 μM”.
In the case of C[C@@H]1C[C@@H]([C@H](O)CC2CC(=O)NC(=O)C2)C(=O)[C@@H](C)C1 [cycloheximide], the “Cell count and viability (positive control)” value ([2]; stimulated lymphocytes, 5 days) is reported as “toxic in a dose dependent manner”.
For O=c1[nH]c(=O)n([C@@H]2O[C@H](CO)[C@@H](O)[C@@H]2F)cc1I [fialuridine, 1,2′-deoxy-2′-fluoro-1-D-arabinofuranosly-5-iodo-uracil], the “Mitochondrial morphology in electron micrographs” value (HepG2 cells) is listed as “enlarged mitochondria with morphological changes consistent with mitochondrial dysfunction”.
In the case of “LR6-1: LQEEDA, SEQ ID NO 4 (listed as Homo sapiens)”, the “Protection of mice against polymicrobial sepsis” value (“Protection of mice” below) (mice) is given as “protect”.
In the case of “LR6-2: EDAGEY, SEQ ID NO 5 (listed as Homo sapiens)”, the “Protection of mice” value (mice) is listed as “protect”.
In the case of “LR6-3: GEYGCM, SEQ ID NO 6 (listed as Homo sapiens)”, the “Protection of mice” value (mice) is listed as “protect”.
